According to the NIST ThermoML archive (doi:10.1016/j.jct.2007.03.005):
± gives the expanded uncertainty stated by the source.

What was measured:
[1] = Molar enthalpy of transition or fusion; conditions: DSC
[2] = DTA

Structure (SMILES)	Molar enthalpy of transition or fusion ([1]; Crystal 1)	Normal melting temperature ([2]; Crystal 1)	Triple point temperature ([2]; Crystal 2)	Molar enthalpy of transition or fusion ([1]; Crystal)	Normal melting temperature ([2]; Crystal)	further results
N#CCCC#N [butanedinitrile]	0.896 ± 0.11 kcal/mol	57.11 ± 1.4 °C	233.59 ± 0.53 K	–	–	Molar enthalpy of transition or fusion ([1]; Crystal 2): 1.46 ± 0.0813 kcal/mol
N#CCCCCCCCCC#N [decanedinitrile]	6.73 ± 0.153 kcal/mol	8.03 ± 0.46 °C	278.02 ± 1.9 K	–	–	–
N#CCCCCCCCCCCC#N [dodecanedinitrile]	–	–	–	8.21 ± 0.263 kcal/mol	21.08 ± 0.48 °C	–
N#CCCCCCC#N [heptanedinitrile]	3.59 ± 0.406 kcal/mol	-31.4 ± 0.39 °C	236.72 ± 1.8 K	–	–	–
N#CCCCCC#N [hexanedinitrile]	4.31 ± 0.153 kcal/mol	1.89 ± 0.49 °C	270.25 ± 1.9 K	–	–	–
N#CCCCCCCCC#N [nonanedinitrile]	–	–	–	4.46 ± 0.263 kcal/mol	-22.01 ± 0.55 °C	–
N#CCCCCCCC#N [octanedinitrile]	5.25 ± 0.148 kcal/mol	-4.22 ± 1.1 °C	265.82 ± 2.5 K	–	–	–
N#CCCCC#N [pentanedinitrile]	–	–	–	2.88 ± 0.189 kcal/mol	-31.10 ± 0.5 °C	–
N#CCC#N [propanedinitrile]	2.56 ± 0.11 kcal/mol	31.89 ± 0.55 °C	303.64 ± 2.1 K	–	–	Molar enthalpy of transition or fusion ([1]; Crystal 4): 0.103 ± 0.0287 kcal/mol; Triple point temperature ([2]; Crystal 3): 294.24 ± 1.1 K; Triple point temperature ([2]; Crystal 4): 260.9 ± 1.6 K
N#CCCCCCCCCCCCCC#N [tetradecanedinitrile]	9.6 ± 0.227 kcal/mol	36.40 ± 0.8 °C	261.05 ± 0.56 K	–	–	Molar enthalpy of transition or fusion ([1]; Crystal 2): 0.423 ± 0.0741 kcal/mol
N#CCCCCCCCCCC#N [undecanodinitrile]	–	–	–	6.22 ± 0.406 kcal/mol	-7.01 ± 0.73 °C	–
